Assay results as given in US20260283988A1, “FERROPTOSIS INHIBITORS” (priority 2023, published 2026).
Read-outs that look alike come from different tables or passages of the source.

Key:
[1] = Cytotoxicity, cell viability assay; assay type: cell-based, Human; conditions: human, ht-1080 cells
Method: (§1) After 24 h of growth, cells were treated with 10 or 12-point serial dilutions of compounds in indicated concentrations for 18 h.

[2] = test system: Mouse Embryonic Fibroblasts (MEF); experiment: Necroptosis assay, TNFα + zVAD-FMK + LCL161, cell viability; assay type: cell-based
Method: For detecting necroptosis, MEF were treated with TNFα, zVAD-FMK and LCL161 before addition of Seratrodast or Necrostatin-1. Cell viability was measured after 18 hours by adding CellTiter-Glo® 2.0 Reagent (Promega) according to the manufacturer's instruction and luminescence was read out.

[3] = test system: HT-1080; experiment: Ferroptosis inhibition, cell viability assay (CellTiter-Glo); assay type: cell-based, Human; conditions: for cellular efficacy/toxicity window: cytotoxic IC50 versus ferroptosis inhibition IC50, 1080 min
Method: Cell lines: Human fibrosarcoma cell line HT-1080 and immortalized Mouse Embryonic Fibroblasts (MEF). MEFs were a gift from Daniel Krappmann, HT-1080 were purchased from ATCC and both cell lines were grown in Dulbecco's Modified Eagle's medium (Thermo Fisher Scientific, 41966-029) supplemented with 10% fetal bovine serum (FBS, Thermo Fisher Scientific), 1% Penicillin-Streptomycin (Thermo Fisher Scientific) and 1% nonessential amino acids (MEM NEAA, Thermo Fisher Scientific). Cells were grown at 37° C. and 5% CO2.
HT-1080 were seeded into 384-well plates (CulturPlates, PerkinElmer) with a density of 750 cells per well. After 24 h of growth, cells were treated with 10 or 12-point serial dilutions of compounds in indicated concentrations for 18 h. Viability was detected by using CellTiter-Glo® 2.0 Regent (Promega) according to the manufacturer's instruction and luminescence was read out in an EnVison 2104 Multilabel plate reader (PerkinElmer).

[4] = test system: HT-1080; experiment: Apoptosis assay, Staurosporine-induced Caspase 3/7 activity (Caspase-Glo 3/7); assay type: cell-based, Human
Method: For detecting apoptosis, HT-1080 were treated with Staurosporine before addition of Seratrodast or zVAD-FMK. Caspase 3/7 activity was measured 18 hours later via Caspase-Glo® 3/7 Assay Reagent (Promega) according to the manufacturer's instruction. Cells were incubated for 45 min at room temperature and luminescence was measured.

[5] = test system: HT-1080; experiment: Cytotoxicity, cell viability assay; assay type: cell-based, Human; conditions: * = signal quenching at higher concentration, toxicity might be less than indicated; 1080 min; read-out: cytotoxic IC50
Method: as §1

[6] = Cell-free BODIPY assay with AAPH; assay type: biochemical; conditions: 25 μM compound; 7.5 mM AAPH
Method: As a control, the same amount of DMSO was diluted in 150 μl PBS. […] For the non-oxidized control, one sample was prepared as DMSO only without AAPH. All three solutions were mixed equally and incubated for 30 min at room temperature in the dark.

[7] = test system: HT-1080-derived spheroids; experiment: 3D spheroid formation and imaging (roundness); assay type: cell-based, Human; conditions: 200 nM RSL3; 2 μM Fer-1; 6 μM Seratrodast, 48 h
Method: Over a period of 48 h spheroids were formed and subsequently treated with RSL3, and Ferrostatin-1 or Seratrodast. […] Images were acquired using an Operetta high-content imaging system (PerkinElmer) and analyses were conducted with the Columbus software (PerkinElmer). For analysis, spheroids were detected as “Image region” and morphology properties were calculated (roundness).

[8] = * = signal quenching at higher concentration, toxicity might be less than indicated, read-out: cytotoxic IC50
[9] = Homo sapiens, HT-1080, based on the assays of example 1, read-out: IC50 (Ferroptosis inhibition)
[10] = Homo sapiens, HT-1080, read-out: IC50 (Ferroptosis inhibition)

| SMILES | CC50 at 18 h [1, 8] | Necroptosis inhibition [2] | IC50 [3, 9] | cellular efficacy/toxicity window [3] | also measured |
| --- | --- | --- | --- | --- | --- |
| Cc1ccc(NC2=C(C(F)(F)F)C(=O)c3ccccc3C2=O)c(C)c1 [iQFerr47, 2-[(2,4-dimethylphenyl)amino]-3-(trifluoromethyl)-1,4-dihydronaphthalene-1,4-dione] | 14.7 µM | no | 0.0101 µM | 1458-fold | Apoptosis inhibition [4]: no |
| Cc1ccc(NC2=C(Cl)C(=O)c3ccccc3C2=O)c(C)c1 [iQFerr35, 2-chloro-3-[(2,4-dimethylphenyl)amino]-1,4-dihydronaphthalene-1,4-dione] |  |  |  | 8051-fold | CC50 [5]: 5.57 µM; IC50 ([3]; based on the assays of example 1, read-out: IC50 (Ferroptosis inhibition)): 0.000692 µM |
| CCOC(=O)c1ccc(NC2CCCCC2)c(N)c1 [Ferrostatin-1] |  |  |  |  | oxidative fluorescence induced by AAPH (cell-free C11-BODIPY) [6]: significantly reduced oxidative fluorescence; inhibition of ferroptosis in 3D spheroid model (spheroid roundness) [7]: fully inhibited ferroptosis-based spheroid destruction |
| Cc1ccc(N(CCCCCC(=O)O)C2=CC(=O)c3ccccc3C2=O)c(C)c1 [iQFerr38, 6-[(2,4-dimethylphenyl)(1,4-dioxo-1,4-dihydronaphthalen-2-yl)amino]hexanoic acid] | 49.8 µM | no | 0.215 µM | 232-fold | Apoptosis inhibition [4]: no |
| CC(=O)Nc1ccc(NC2=C(C(F)(F)F)C(=O)c3ccccc3C2=O)cc1 [iQFerr44, N-(4-{[1,4-dioxo-3-(trifluoromethyl)-1,4-dihydronaphthalen-2-yl]amino}phenyl) acetamide] | 58.8 µM | no | 0.0309 µM | 1901-fold |  |
| CC(=O)Nc1ccc(NC2=CC(=O)c3ccccc3C2=O)cc1 [iQFerr20, N-[4-(1,4-dioxo-1,4-dihydronaphthalen-2-yl-amino)phenyl]acetamide] | 10.2 µM | no | 0.00812 µM | 1254-fold | Apoptosis inhibition [4]: no |
| CC(=O)c1ccc(NC2=C(Cl)C(=O)c3ccccc3C2=O)cc1 [iQFerr02, NQ301] | 0.759 µM | no | 0.027 µM | 28-fold |  |
| Cc1ccc(N(CCCCCC(N)=O)C2=CC(=O)c3ccccc3C2=O)c(C)c1 [iQFerr43, 6-[(2,4-dimethylphenyl)(1,4-dioxo-1,4-dihydronaphthalen-2-yl)amino]hexanamide] | 75.5 µM | no | 0.116 µM | 653-fold | Apoptosis inhibition [4]: no |
| CCc1ccc(NC2=C(Cl)C(=O)c3ccccc3C2=O)cc1 [iQFerr10, 2-chloro-3-(4-ethylanilino)-1,4-naphtoquinone] | 0.844 µM |  | 0.008 µM | 105-fold |  |
| CC1=C(Nc2cc(C)cc(C)c2)C(=O)c2ccccc2C1=O [iQFerr46, 2-[(3,5-dimethylphenyl)amino]-3-methyl-1,4-dihydronaphthalene-1,4-dione] | 77.6 µM | no | 0.00211 µM | 36758-fold | Apoptosis inhibition [4]: no |
| O=C1C=C(Cc2ccc(F)cc2)C(=O)c2ccccc21 [iQFerr28, 2-(4-fluorobenzyl)-1,4-naphtoquinone] | 1.45 µM |  | 0.0324 µM | 45-fold |  |
| CC(=O)Nc1ccc(NC2=C(C)C(=O)c3ccccc3C2=O)cc1 [iQFerr39, N-{4-[(3-methyl-1,4-dioxo-1,4-dihydronaphthalen-2-yl)amino]phenyl} acetamide] | 43.5 µM | no | 0.017 µM | 2561-fold | Apoptosis inhibition [4]: no |
| O=C1C=C(C(c2ccccc2)c2ccccc2)C(=O)c2ccccc21 [iQFerr29, 2-diphenylmethyl-1,4-naphtoquinone] | 4.99 µM | no | 0.00391 µM | 1277-fold |  |
| CC(C)=CCCC1=CC(=O)c2c(O)ccc(O)c2C1=O [iQFerr05, Deoxyshikonin] | 1.62 µM |  |  | 6-fold | IC50 [3, 10]: 0.287 µM |
| O=C(O)c1ccccc1NC1=CC(=O)c2c(O)cccc2C1=O [iQFerr23] | 16.4 µM |  | 3.48 µM | 5-fold |  |
| CC1=C(Nc2ccc(C)cc2C)C(=O)c2ccccc2C1=O [iQFerr41, 2-[(2,4-dimethylphenyl)amino]-3-methyl-1,4-dihydronaphthalene-1,4-dione] | 13.4 µM | no | 0.00291 µM | 4601-fold | Apoptosis inhibition [4]: no |
| CC(C)=CC[C@H](O)C1=CC(=O)c2c(O)ccc(O)c2C1=O [iQFerr04, Alkannin] | 0.573 µM |  |  |  | IC50 [3, 10]: > 1 µM |
| Cc1ccc(C(C2=C(O)C(=O)c3ccccc3C2=O)c2ccccc2)cc1 (stereo not drawn) [iQFerr32, 2-hydroxy-3-[(4-methylphenyl)phenyl-methyl]-1,4-naphtoquinone] | 34.2 µM |  | 39.8 µM |  |  |
| Cc1ccc(CC2=CC(=O)c3ccccc3C2=O)cc1 [iQFerr30, 2-(4-methylbenzyl)-1,4-naphtoquinone] | 5.06 µM |  | 0.0384 µM | 132-fold |  |
| CC(C)=CC[C@@H](O)C1=CC(=O)c2c(O)ccc(O)c2C1=O [iQFerr03, Shikonin] | 0.269 µM |  |  |  | IC50 [3, 10]: > 1 µM |
| Cc1ccc(NC2=C(Cl)C(=O)c3ccccc3C2=O)cc1 [iQFerr13, 2-chloro-3-(4-methylanilino)-1,4-naphtoquinone] | 0.38 µM |  | 0.003 µM | 126-fold |  |
| O=C(O)c1ccc2c(c1)C(=O)c1ccccc1C2=O [iQFerr08, Anthraquinone-2-carboxyclic acid] |  |  |  |  | CC50 at 18 h [1]: > 100 µM; IC50 [3, 10]: 13 µM |
| COC1=C(OC)C(=O)C(CC=C(C)C)=C(C)C1=O [iQFerr07, Coenzyme Q1] | 10 µM |  | 0.03 µM | 333-fold |  |
| Cc1ccc(NC2=CC(=O)c3ccccc3C2=O)c(C)c1 [iQFerr37, 2-[(2,4-dimethylphenyl)amino]-1,4-dihydronaphthalene-1,4-dione] | 48.8 µM |  | 0.0154 µM | 3162-fold |  |
| O=C(O)CCCNC1=C(Cl)C(=O)c2ccccc2C1=O [iQFerr15, 4-[(3-chloro-1,4-dioxo-1,4-dihydronaphthalen-2-yl)amino]butanoic acid] | 215 µM |  | 1.36 µM | 159-fold |  |
| CCOc1ccc(NC2=CC(=O)C=CC2=O)cc1 [iQFerr27, 2-(4-ethoxyanilino)-benzo-1,4-quinone] | 2.16 µM |  | 0.493 µM | 4-fold |  |
| Cc1ccc(NC2=CC(=O)c3ccccc3C2=O)cc1 [iQFerr22, 2-(4-methylanilino)-1,4-naphtoquinone] | 5.5 µM |  | 0.0156 µM | 354-fold |  |
| Cc1ccc(N(CCCC(N)=O)C2=CC(=O)c3ccccc3C2=O)c(C)c1 [iQFerr40, 4-[(2,4-dimethylphenyl)(1,4-dioxo-1,4-dihydronaphthalen-2-yl)amino]butanamide] | 0.23 µM |  | 0.189 µM | 1,2-fold |  |
| CC(=O)c1cccc(NC2=C(Cl)C(=O)c3ccccc3C2=O)c1 [iQFerr09, 2-(3-acetylanilino)-3-chloro-1,4-naphtoquinone] | 0.81 µM |  | 0.063 µM | 13-fold |  |
| CN(C)c1ccc(NC2=CC(=O)c3ccccc3C2=O)cc1 [iQFerr19, 2-[4-(dimethylamino)-anilino]-1,4-naphtoquinone] | 5.85 µM |  | 0.0322 µM | 182-fold |  |
